Data reported in patent publication US10131652B2, “Pyrimidinyloxy benzene derivatives as herbicides” (E. I. DU PONT DE NEMOURS AND COMPANY, priority 2014, dated 2018).
Read-outs that look alike come from different tables or passages of the source.

Tests used:
Format in all cases: in vivo
[1] = system: wheat (Triticum aestivum); experiment: Test B pre-/postemergence plant response; settings: Triticum aestivum, 240 h, read-out: Plant response rating, Wheat; for plant injury at 125 g/ha: 125 g ai/ha; for plant injury at 500 g/ha: 500 g ai/ha
Method in brief: (§1)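 Greenhouse pots, loam/sand soil; compound formulated with surfactant in non-phytotoxic solvent. Preemergence soil spray and postemergence spray at 1–2 leaf stage run simultaneously. Visual injury, 0–100, about 10 days post-treatment.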

[2] = system: barnyardgrass (Echinochloa crus-galli); experiment: Test B pre-/postemergence plant response; settings: Echinochloa crus-galli, 240 h, read-out: Plant response rating, Barnyardgrass; for pest or weed control at 125 g/ha: 125 g ai/ha; for pest or weed control at 500 g/ha: 500 g ai/ha
Method in brief: as §1

corn (Zea mays) = experiment: Test B pre-/postemergence plant response; settings: Zea mays, 240 h; for Corn plant response rating (crop injury, 0 = no effect, 100 = complete kill) at 125 g/ha: 125 g ai/ha; for Corn plant response rating (crop injury, 0 = no effect, 100 = complete kill) at 500 g/ha: 500 g ai/ha
Method in brief: as §1

[3] = system: giant foxtail (Setaria faberii); experiment: Test B pre-/postemergence plant response; settings: Setaria faberi, 240 h, read-out: Plant response rating, Foxtail, Giant; for pest or weed control at 125 g/ha: 125 g ai/ha; for pest or weed control at 500 g/ha: 500 g ai/ha
Method in brief: as §1

[4] = system: pigweed (Amaranthus retroflexus); experiment: Test B pre-/postemergence plant response; settings: Amaranthus retroflexus, 240 h, read-out: Plant response rating, Pigweed; for pest or weed control at 125 g/ha: 125 g ai/ha; for pest or weed control at 500 g/ha: 500 g ai/ha
Method in brief: as §1

[5] = system: blackgrass (Alopecurus myosuroides); experiment: Test D pre-/postemergence plant response; settings: Alopecurus myosuroides; for pest or weed control at 31 g/ha: 31 g ai/ha; for pest or weed control at 62 g/ha: 62 g ai/ha; for pest or weed control at 125 g/ha: 125 g ai/ha; for pest or weed control at 250 g/ha: 250 g ai/ha
Source text: (§2) Seeds of plant species selected from blackgrass (Alopecurus myosuroides), Italian ryegrass (Lolium multiflorum), winter wheat (Triticum aestivum), galium (catchweed bedstraw, Galium aparine), corn (Zea mays), large (Lg) crabgrass (Digitaria sanguinalis), giant foxtail (Setaria faberii), johnsongrass (Sorghum halepense), lambsquarters (Chenopodium album), morningglory (Ipomoea coccinea), yellow nutsedge (Cyperus esculentus), pigweed (Amaranthus retroflexus), ragweed (common ragweed, Ambrosia elatior), soybean (Glycine max), bamyardgrass (Echinochloa crus-galli), oilseed rape (Brassica napus), waterhemp (common waterhemp, Amaranthus rudis), and velvetleaf (Abutilon theophrasti) were planted into a blend of loam soil and sand and treated preemergence with test chemicals formulated in a non-phytotoxic solvent mixture which included a surfactant. At the same time, plants selected from these crop and weed species and also kochia (Kochia scoparia), wild oat (Avena fatua), and chickweed (common chickweed, Stellaria media) were planted in pots containing Redi-Earth® planting medium (Scotts Company, 14111 Scottslawn Road, Marysville, Ohio 43041) comprising spaghnum peat moss, vermiculite, wetting agent and starter nutrients and treated with postemergence applications of test chemicals formulated in the same manner. Plants ranged in height from 2 to 18 cm (1- to 4-leaf stage) for postemergence treatments. Treated plants and controls were maintained in a greenhouse for 13 to 15 days, after which time all species were compared to controls and visually evaluated. Plant response ratings, summarized in Table D, are based on a scale of 0 to 100 where 0 is no effect and 100 is complete control. A dash (-) response means no test result.

[6] = system: ragweed (common ragweed, Ambrosia elatior); experiment: Test D pre-/postemergence plant response; settings: Ambrosia artemisiifolia; for pest or weed control at 31 g/ha: 31 g ai/ha; for pest or weed control at 62 g/ha: 62 g ai/ha; for pest or weed control at 125 g/ha: 125 g ai/ha; for pest or weed control at 250 g/ha: 250 g ai/ha
Source text: as §2

[7] = system: morningglory (Ipomoea coccinea); experiment: Test D pre-/postemergence plant response; settings: Ipomoea; for pest or weed control at 31 g/ha: 31 g ai/ha; for pest or weed control at 62 g/ha: 62 g ai/ha; for pest or weed control at 125 g/ha: 125 g ai/ha; for pest or weed control at 250 g/ha: 250 g ai/ha
Source text: as §2

soybean (Glycine max) = experiment: Test D pre-/postemergence plant response; settings: Glycine max; for plant injury at 31 g/ha: 31 g ai/ha; for plant injury at 62 g/ha: 62 g ai/ha; for plant injury at 125 g/ha: 125 g ai/ha; for plant injury at 250 g/ha: 250 g ai/ha
Source text: as §2

[8] = system: johnsongrass (Sorghum halepense); experiment: Test D pre-/postemergence plant response; settings: Sorghum halepense, post-emergence, Postemergence
Source text: as §2

[9] = post-emergence, postemergence, 0 to 100 scale, 0 no effect, 100 complete control
[10] = post-emergence, Postemergence, 0 to 100 scale (0 no effect, 100 complete control)
[11] = pre-emergence, Preemergence, 0 to 100 scale where 0 is no effect and 100 is complete control
[12] = post-emergence, Postemergence, scale 0 to 100, 0 no effect, 100 complete control, read-out: Plant response rating, Blackgrass
[13] = pre-emergence, Preemergence, read-out: Plant response rating (scale 0 to 100), Blackgrass
[14] = pre-emergence, Preemergence, scale 0 to 100 (0 no effect, 100 complete control), read-out: Plant response rating, Blackgrass
[15] = post-emergence, Postemergence, scale 0 to 100, 0 no effect, 100 complete control, read-out: Plant response rating, Ragweed
[16] = pre-emergence, Preemergence, read-out: Plant response rating (scale 0 to 100), Ragweed
[17] = pre-emergence, Preemergence, scale 0 to 100 (0 no effect, 100 complete control), read-out: Plant response rating, Ragweed
[18] = post-emergence, Postemergence, scale 0 to 100, 0 no effect, 100 complete control, read-out: Plant response rating, Morningglory
[19] = pre-emergence, Preemergence, read-out: Plant response rating (scale 0 to 100), Morningglory
[20] = pre-emergence, Preemergence, scale 0 to 100 (0 no effect, 100 complete control), read-out: Plant response rating, Morningglory
[21] = post-emergence, Postemergence, scale 0 to 100, 0 no effect, 100 complete control, read-out: Plant response rating, Soybean
[22] = pre-emergence, Preemergence, read-out: Plant response rating (scale 0 to 100), Soybean
[23] = pre-emergence, Preemergence, scale 0 to 100 (0 no effect, 100 complete control), read-out: Plant response rating, Soybean

Structure (SMILES): FC(F)c1cc(-c2ccccc2Oc2ncc(Br)cn2)no1 [Compound 62, 5-bromo-2-[2-[5-(difluoromethyl)-3-isoxazolyl]phenoxy]pyrimidine]
- plant injury at 125 g/ha [1, 9]: 0%
- plant injury at 500 g/ha [1, 10]: 30%
- plant injury at 125 g/ha [1, 11]: 20%
- plant injury at 500 g/ha [1, 11]: 30%
- pest or weed control at 125 g/ha [2, 9]: 90%
- pest or weed control at 500 g/ha [2, 10]: 100%
- pest or weed control at 125 g/ha [2, 11]: 80%
- pest or weed control at 500 g/ha [2, 11]: 100%
- Corn plant response rating (crop injury, 0 = no effect, 100 = complete kill) at 125 g/ha (corn (Zea mays); [9]): 10%
- Corn plant response rating (crop injury, 0 = no effect, 100 = complete kill) at 500 g/ha (corn (Zea mays); [10]): 50%
- Corn plant response rating (crop injury, 0 = no effect, 100 = complete kill) at 125 g/ha (corn (Zea mays); [11]): 0%
- Corn plant response rating (crop injury, 0 = no effect, 100 = complete kill) at 500 g/ha (corn (Zea mays); [11]): 20%
- pest or weed control at 125 g/ha [3, 9]: 80%
- pest or weed control at 500 g/ha [3, 10]: 90%
- pest or weed control at 125 g/ha [3, 11]: 100%
- pest or weed control at 500 g/ha [3, 11]: 100%
- pest or weed control at 125 g/ha [4, 9]: 100%
- pest or weed control at 500 g/ha [4, 10]: 100%
- pest or weed control at 125 g/ha [4, 11]: 100%
- pest or weed control at 500 g/ha [4, 11]: 100%
- pest or weed control at 31 g/ha ([5]; post-emergence, Postemergence, scale 0 to 100 (0 no effect, 100 complete control), read-out: Blackgrass plant response rating): 20%
- pest or weed control at 62 g/ha [5, 12]: 25%
- pest or weed control at 125 g/ha [5, 12]: 40%
- pest or weed control at 250 g/ha [5, 12]: 60%
- pest or weed control at 125 g/ha [5, 13]: 90%
- pest or weed control at 250 g/ha [5, 13]: 90%
- pest or weed control at 31 g/ha [5, 14]: 5%
- pest or weed control at 62 g/ha [5, 14]: 90%
- pest or weed control at 31 g/ha ([6]; post-emergence, Postemergence, scale 0 to 100 (0 no effect, 100 complete control), read-out: Ragweed plant response rating): 65%
- pest or weed control at 62 g/ha [6, 15]: 60%
- pest or weed control at 125 g/ha [6, 15]: 65%
- pest or weed control at 250 g/ha [6, 15]: 85%
- pest or weed control at 125 g/ha [6, 16]: 75%
- pest or weed control at 250 g/ha [6, 16]: 85%
- pest or weed control at 31 g/ha [6, 17]: 0%
- pest or weed control at 62 g/ha [6, 17]: 65%
- pest or weed control at 31 g/ha ([7]; post-emergence, Postemergence, scale 0 to 100 (0 no effect, 100 complete control), read-out: Morningglory plant response rating): 85%
- pest or weed control at 62 g/ha [7, 18]: 95%
- pest or weed control at 125 g/ha [7, 18]: 95%
- pest or weed control at 250 g/ha [7, 18]: 98%
- pest or weed control at 125 g/ha [7, 19]: 98%
- pest or weed control at 250 g/ha [7, 19]: 100%
- pest or weed control at 31 g/ha [7, 20]: 25%
- pest or weed control at 62 g/ha [7, 20]: 55%
- plant injury at 31 g/ha (soybean (Glycine max); post-emergence, Postemergence, scale 0 to 100 (0 no effect, 100 complete control), read-out: Soybean plant response rating): 80%
- plant injury at 62 g/ha (soybean (Glycine max); [21]): 95%
- plant injury at 125 g/ha (soybean (Glycine max); [21]): 98%
- plant injury at 250 g/ha (soybean (Glycine max); [21]): 98%
- plant injury at 125 g/ha (soybean (Glycine max); [22]): 85%
- plant injury at 250 g/ha (soybean (Glycine max); [22]): 95%
- plant injury at 31 g/ha (soybean (Glycine max); [23]): 60%
- plant injury at 62 g/ha (soybean (Glycine max); [23]): 70%
- pest or weed control at 31 g/ha ([8]; 31 g ai/ha, scale 0 to 100 (0 no effect, 100 complete control), read-out: Johnsongrass plant response rating): 25%
- pest or weed control at 62 g/ha ([8]; 62 g ai/ha, scale 0 to 100, 0 no effect, 100 complete control, read-out: Plant response rating, Johnsongrass): 25%
